Assay results reported in patent EP0054756A2, “Antibacterial benzylpyrimidines” (THE WELLCOME FOUNDATION LIMITED, priority 1980, dated 1982).
≈ marks a conversion by molar mass, not a printed value. Where “and” joins values, the source holds several entries; their conditions need not be identical. Equal entries are not always repeated. Structures can show the parent of a compound that is named as a salt. Where two headings read alike, the source gives them in different places.

Experiments:
[1] = tested on: Streptococcus uberis; experiment: In vitro MIC against bovine mastitis strains; format: cell-based; details: Internal Ref. No. 359, isolated from the bovine udder, read-out: Approximate MIC
Description: (§1) All organisms were isolated from the bovine udder.

[2] = tested on: Streptococcus dysgalactiae; experiment: In vitro MIC against bovine mastitis strains; format: cell-based; details: read-out: Approximate MIC
Description: as §1

[3] = tested on: Streptococcus agalactiae; experiment: In vitro MIC against bovine mastitis strains; format: cell-based; details: read-out: Approximate MIC
Description: as §1

[4] = tested on: Staphylococcus aureus; experiment: In vitro MIC against bovine mastitis strains; format: cell-based; details: read-out: Approximate MIC
Description: as §1

[5] = tested on: Staph.aureus CN 491; experiment: In vitro antibacterial activity (MIC); format: cell-based; details: for MIC: Staphylococcus aureus
[6] = molecular target: Dihydrofolate reductase (Neisseria gonorrhoeae, UniProt P04174); experiment: biochemical; details: N. gonorrhea enzyme; read-out: Dihydrofolate reductase inhibition, I50 x 10^8
[7] = tested on: St. pyogenes; experiment: In vitro antibacterial activity (MIC); format: cell-based; details: for MIC: Streptococcus pyogenes
[8] = tested on: Strep.Faecalis CN 478; experiment: In vitro antibacterial activity (MIC); format: cell-based; details: for MIC: Enterococcus faecalis, CN478
[9] = tested on: Staphylococcus aureus; experiment: In vitro MIC against bovine mastitis strains; format: cell-based; details: "OXFORD", Internal Ref. No. 6571, read-out: Approximate MIC
[10] = tested on: E. coli CN 314; experiment: In vitro antibacterial activity (MIC); format: cell-based; details: Escherichia coli, CN314
[11] = tested on: N. gonorrhea; experiment: In vitro antibacterial activity versus TMP, Wellcome test; format: cell-based; details: activity relative to trimethoprim
[12] = molecular target: Dihydrofolate reductase (Escherichia coli, UniProt P0ABQ4); experiment: Dihydrofolate reductase inhibition; format: biochemical, E. coli
[13] = molecular target: T1, Dihydrofolate reductase (Rattus norvegicus, UniProt Q920D2); experiment: Dihydrofolate reductase inhibition; format: biochemical, Rat liver
T1 construct: Rat liver; from tissue; host or cells: rat liver
T1 sequence (Q920D2 1-187): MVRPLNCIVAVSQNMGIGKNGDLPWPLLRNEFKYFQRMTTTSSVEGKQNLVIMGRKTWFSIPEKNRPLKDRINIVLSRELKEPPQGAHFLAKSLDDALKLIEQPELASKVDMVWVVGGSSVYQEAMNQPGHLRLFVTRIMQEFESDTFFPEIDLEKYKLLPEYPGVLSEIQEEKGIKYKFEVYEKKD

[14] = molecular target: Dihydrofolate reductase (Plasmodium berghei, UniProt Q27713); experiment: biochemical; details: P. berghei enzyme; read-out: Dihydrofolate reductase inhibition, I50 x 10^8
[15] = tested on: N. gonorrhea; experiment: In vitro antibacterial activity versus TMP, Difco test; format: cell-based; details: activity relative to trimethoprim
[16] = LD50 intraperitoneal in male rats; details: rat, in vivo, ip
Protocol: The LD50's ( expressed in rng/kg intraperitoneal) of two compounds of the present invention were determined in male rats.

[17] = Internal Ref. No. 366, isolated from the bovine udder
[18] = Internal Ref. No. 367, isolated from the bovine udder
[19] = Internal Ref. No. 321, isolated from the bovine udder
[20] = Internal Ref. No. 371, isolated from the bovine udder
[21] = Internal Ref. No. 316, isolated from the bovine udder
[22] = Internal Ref. No. 317, isolated from the bovine udder
[23] = Internal Ref. No. 348, isolated from the bovine udder
[24] = Internal Ref. No. 349, isolated from the bovine udder
[25] = Internal Ref. No. 352, isolated from the bovine udder
[26] = Internal Ref. No. 353, isolated from the bovine udder
[27] = read-out: MIC St. pyogenes CN 10
[28] = read-out: MIC St. pyogenes S3640
[29] = E. coli enzyme, read-out: Dihydrofolate reductase inhibition, I50 x 10^8
[30] = Rat liver enzyme, read-out: Dihydrofolate reductase inhibition, I50 x 10^8

Molecule	MIC [1] [µM]	MIC [2, 17] [µM]	MIC [2, 18] [µM]	MIC [3, 19] [µM]	MIC [3, 20] [µM]	MIC [4, 21] [µM]	MIC [4, 22] [µM]	MIC [4, 23] [µM]	MIC [4, 24] [µM]	MIC [4, 25] [µM]	MIC [4, 26] [µM]	MIC ([5]; CN491) [µg/mL]	IC50 [6] [nM]	MIC [7, 27] [µg/mL]	MIC [7, 28] [µg/mL]	MIC [8] [µg/mL]	MIC [9] [µM]	MIC [10] [µg/mL]	IC50 [12] [nM]	IC50 [13] [nM]	other results
COc1cc(Cc2cnc(N)nc2N)cc(OCCCCc2ccccc2)c1OC [compound 3, 2,4-Diamino-5-(3,4-dimethoxy-5-(4-phenylbutoxy)benzyl)pyrimidine]	0.25 (≈ 0.102 µg/mL)	0.75 (≈ 0.306 µg/mL)	0.75 (≈ 0.306 µg/mL)	0.25 (≈ 0.102 µg/mL)	0.25 (≈ 0.102 µg/mL)	0.075 (≈ 0.0306 µg/mL)	0.025 (≈ 0.0102 µg/mL)	0.075 (≈ 0.0306 µg/mL)	0.075 (≈ 0.0306 µg/mL)	0.075 (≈ 0.0306 µg/mL)	0.025 (≈ 0.0102 µg/mL)	0.03 (≈ 0.0734 µM)	18	0.1 (≈ 0.245 µM)	0.1 (≈ 0.245 µM)	0.1 (≈ 0.245 µM)	0.025 (≈ 0.0102 µg/mL)	3 (≈ 7.34 µM)	2.3	43000	Act., vs TMP N. gonorrhea Wellcome test [11]: 1.54; IC50 [14]: 11 nM; Act., vs TMP N. gonorrhea Difco test [15]: 11.35
2,4-diamino-5-(3,4-dime-thoxy-5-(3-p-nitrophenyl-propoxy)benzyl)pyrimidine	–	–	–	–	–	–	–	–	–	–	–	–	–	–	–	–	–	–	–	–	IC50 [12, 29]: 17 nM; IC50 [13, 30]: 25000 nM
COc1cc(Cc2cnc(N)nc2N)cc(OCCSc2ccccc2)c1OC [Example 14, 2,4-Diamino-5-(3,4-dimethoxy-5-(2-(phenylthio)ethoxy)benzyl)pyrimidine]	–	–	–	–	–	–	–	–	–	–	–	0.5 (≈ 1.21 µM)	11.4	0.5 (≈ 1.21 µM)	0.5 (≈ 1.21 µM)	0.5 (≈ 1.21 µM)	–	1 (≈ 2.42 µM)	5.3	37000	–
COc1cc(Cc2cnc(N)nc2N)cc(OCCCCOc2ccccc2)c1OC [Example 10, 2,4-Diamino-5-(3,4-dimethoxy-5-(4-phenoxybutoxy)benzyl)pyrimidine hydrochloride]	–	–	–	–	–	–	–	–	–	–	–	–	19	–	–	–	–	–	4	74000	–
COc1cccc(CCCOc2cc(Cc3cnc(N)nc3N)cc(OC)c2OC)c1 [compound 2, 2,4-Diamino-5-(3,4-dimethoxy-5-(3-(m-methoxyphenyl)propoxy)benzyl)pyrimidine]	2.5 (≈ 1.06 µg/mL)	0.75 (≈ 0.318 µg/mL)	0.25 (≈ 0.106 µg/mL)	0.25 (≈ 0.106 µg/mL)	0.75 (≈ 0.318 µg/mL)	0.025 (≈ 0.0106 µg/mL)	0.025 (≈ 0.0106 µg/mL)	0.025 (≈ 0.0106 µg/mL)	0.025 (≈ 0.0106 µg/mL)	0.075 (≈ 0.0318 µg/mL)	0.025 (≈ 0.0106 µg/mL)	0.3 (≈ 0.707 µM)	18	1 (≈ 2.36 µM)	1 (≈ 2.36 µM)	0.3 (≈ 0.707 µM)	0.025 (≈ 0.0106 µg/mL)	10 (≈ 23.6 µM)	57	83000	Act., vs TMP N. gonorrhea Wellcome test [11]: 3.20; IC50 [14]: 57 nM; LD50 [16]: > 100 mg/kg; Act., vs TMP N. gonorrhea Difco test [15]: 9.63
COc1cc(Cc2cnc(N)nc2N)cc(OCCCOc2ccccc2)c1OC [compound 5, 2,4-Diamino-5-(3,4-dimethoxy-5-(3-phenoxypropoxy)benzyl)pyrimidine]	–	–	–	–	–	–	–	–	–	–	–	0.1 (≈ 0.244 µM)	32	0.3 (≈ 0.731 µM)	0.3 (≈ 0.731 µM)	0.1 (≈ 0.244 µM)	–	1 (≈ 2.44 µM)	37	80000	Act., vs TMP N. gonorrhea Wellcome test [11]: 4.12; IC50 [14]: 150 nM; Act., vs TMP N. gonorrhea Difco test [15]: 11.28
COc1cc(Cc2cnc(N)nc2N)cc(OC)c1OC [Trimethoprim, reference compound]	10 (≈ 2.9 µg/mL)	3.3 (≈ 0.958 µg/mL)	1 (≈ 0.29 µg/mL)	1 (≈ 0.29 µg/mL)	3.3 (≈ 0.958 µg/mL)	1 (≈ 0.29 µg/mL)	0.33 (≈ 0.0958 µg/mL)	1 (≈ 0.29 µg/mL)	1 (≈ 0.29 µg/mL)	3.3 (≈ 0.958 µg/mL)	1 (≈ 0.29 µg/mL)	–	–	–	–	0.1 (≈ 0.344 µM)	1 (≈ 0.29 µg/mL)	0.1 (≈ 0.344 µM)	–	–	MIC ([5]; CN491, strain CN 491, cell prints compound/trimethoprim): 0.5 µg/mL (≈ 1.72 µM); MIC Staph.aureus CN 491 ([5]; strain CN 491, cell prints compound/trimethoprim): 0.3 ug/ml and 0.3/0.3 ug/ml and 0.5/0.5 ug/ml; MIC ([7]; strain CN 10, cell prints compound/trimethoprim, read-out: MIC St. pyogenes CN 10): 0.5 µg/mL (≈ 1.72 µM); MIC St. pyogenes CN 10 ([7]; strain CN 10, cell prints compound/trimethoprim): 0.3/0.3 ug/ml and 0.3 ug/ml; MIC Strep.Faecalis CN 478 ([8]; strain CN 478, cell prints compound/trimethoprim): 0.1 µg/mL (≈ 0.344 µM)
2,4-dimethoxy-5-(dime-thoxy-5-(3-p-aminophenyl-propoxy)benzyl)pyrimidine	–	–	–	–	–	–	–	–	–	–	–	–	29	–	–	–	–	–	–	–	IC50 [12, 29]: 7.2 nM; IC50 [13, 30]: 81000 nM
COc1cc(Cc2cnc(N)nc2N)cc(OCCCc2ccccc2)c1OC [compound 1, 2,4-Diamino-5-(3,4-dimethoxy-5-(3-phenylpropoxy)benzyl)pyrimidine]	2.5 (≈ 0.986 µg/mL)	0.75 (≈ 0.296 µg/mL)	0.25 (≈ 0.0986 µg/mL)	0.075 (≈ 0.0296 µg/mL)	0.75 (≈ 0.296 µg/mL)	0.025 (≈ 0.00986 µg/mL)	0.025 (≈ 0.00986 µg/mL)	0.025 (≈ 0.00986 µg/mL)	0.025 (≈ 0.00986 µg/mL)	0.075 (≈ 0.0296 µg/mL)	0.025 (≈ 0.00986 µg/mL)	0.03 (≈ 0.0761 µM)	15	0.3 (≈ 0.761 µM)	0.3 (≈ 0.761 µM)	0.1 (≈ 0.254 µM)	0.025 (≈ 0.00986 µg/mL)	1 (≈ 2.54 µM)	4.8	94000	Act., vs TMP N. gonorrhea Wellcome test [11]: 5.46; IC50 [14]: 100 nM; LD50 [16]: > 100 mg/kg; Act., vs TMP N. gonorrhea Difco test [15]: 12.81
COc1cc(Cc2cnc(N)nc2N)cc(OCCSCc2ccccc2)c1OC [Example 15, 2,4-Diamino-5-(3,4-dimethoxy-5-(2-(benzylthio)ethoxy)benzyl)pyrimidine]	–	–	–	–	–	–	–	–	–	–	–	0.05 (≈ 0.117 µM)	18	0.5 (≈ 1.17 µM)	0.5 (≈ 1.17 µM)	0.1 (≈ 0.234 µM)	–	0.5 (≈ 1.17 µM)	2	47000	–
COc1cc(Cc2cnc(N)nc2N)cc(OCCOCc2ccccc2)c1OC [compound 4, 2,4-Diamino-5-(3,4-dimethoxy-5-(2-benzyloxyethoxy)benzyl)pyrimidine]	2.5 (≈ 1.03 µg/mL)	3.3 (≈ 1.35 µg/mL)	1 (≈ 0.41 µg/mL)	0.25 (≈ 0.103 µg/mL)	2.5 (≈ 1.03 µg/mL)	0.25 (≈ 0.103 µg/mL)	0.075 (≈ 0.0308 µg/mL)	0.25 (≈ 0.103 µg/mL)	0.075 (≈ 0.0308 µg/mL)	0.25 (≈ 0.103 µg/mL)	0.075 (≈ 0.0308 µg/mL)	–	78	–	–	–	0.075 (≈ 0.0308 µg/mL)	–	5.4	300000	–
CCc1cc(Cc2cnc(N)nc2N)cc(CC)c1OCCOCc1ccccc1 [Example 6, 2,4-Diamino-5-(3,5-diethyl-4-(2-benzyloxyethoxy)benzyl)pyrimidine]	–	–	–	–	–	–	–	–	–	–	–	3 (≈ 7.38 µM)	48	3 (≈ 7.38 µM)	1 (≈ 2.46 µM)	0.3 (≈ 0.738 µM)	–	10 (≈ 24.6 µM)	–	–	Act., vs TMP N. gonorrhea Wellcome test [11]: 0.35; IC50 [13, 30]: 26000 nM; IC50 [14]: 34 nM
